# Experimental data as given in ChEMBL document CHEMBL4130508, “Structural Sequencing of Oligopeptides Aided by 1H Iterative Full-Spin Analysis” (2017).
# Numbered stars: 1 amine (or outer) side, 2 acyl side, 3 side chain; on linkers, the order of the positions; unused ones are H or OH. Bridge positions count the residues as written; N and C are the ends. Square brackets hold non-standard residues; d marks the D form. Peptide text beside a SMILES is read from it. * marks the point of attachment. Phe(3R-OH) = O=C([C@@H](N[*:1])[C@H](O[*:3])c1ccccc1)[*:2]; NMeTrp(4-OMe) = CN[C@@H](Cc1c[nH]c2cccc(OC)c12)C(=O)O; NMeaIle = CC[C@@H](C)[C@H](NC)C(=O)O; NMe2Val = CC(C)[C@@H](C(=O)*)N(C)C; NMeT = CN[C@H](C(=O)O)[C@@H](C)O; NMeL = CN[C@@H](CC(C)C)C(=O)O; NMeV = CN[C@H](C(=O)O)C(C)C
# Test system: Mycobacterium tuberculosis
# Test: Antimycobacterial activity against Mycobacterium tuberculosis H37Rv ATCC 27294 by Alamar blue assay
# Format: functional
row,SMILES,MIC [µg/mL]
1,CC[C@@H](C)[C@@H](C(=O)N[C@@H]1C(=O)N(C)[C@@H]([C@@H](C)O)C(=O)N[C@@H](C(C)C)C(=O)N(C)[C@@H](CC(C)C)C(=O)N[C@@H](C(C)C)C(=O)N(C)[C@@H](C(C)C)C(=O)N(C)[C@@H](Cc2c[nH]c3cccc(OC)c23)C(=O)N[C@@H](C(C)C)C(=O)N[C@@H]([C@H](O)c2ccccc2)C(=O)N[C@@H]([C@@H](C)CC)C(=O)O[C@@H]1C)N(C)C(=O)[C@@H](NC(=O)[C@H](C(C)C)N(C)C)C(C)C,0.26
2,CC[C@@H](C)[C@@H](C(=O)N[C@@H]1C(=O)N(C)[C@@H]([C@@H](C)O)C(=O)N[C@@H]([C@@H](C)CC)C(=O)N(C)[C@@H](CC(C)C)C(=O)N[C@@H](C(C)C)C(=O)N(C)[C@@H](C(C)C)C(=O)N(C)[C@@H](Cc2c[nH]c3cccc(OC)c23)C(=O)N[C@@H](C(C)C)C(=O)N[C@@H]([C@H](O)c2ccccc2)C(=O)N[C@@H](C(C)C)C(=O)O[C@@H]1C)N(C)C(=O)[C@@H](NC(=O)[C@H](C(C)C)N(C)C)C(C)C,0.26
3,CC[C@@H](C)[C@@H](C(=O)N[C@@H]1C(=O)N(C)[C@@H]([C@@H](C)O)C(=O)N[C@@H](C(C)C)C(=O)N(C)[C@@H](CC(C)C)C(=O)N[C@@H](C(C)C)C(=O)N(C)[C@@H](C(C)C)C(=O)N(C)[C@@H](Cc2c[nH]c3cccc(OC)c23)C(=O)N[C@@H]([C@@H](C)CC)C(=O)N[C@@H]([C@H](O)c2ccccc2)C(=O)N[C@@H](C(C)C)C(=O)O[C@@H]1C)N(C)C(=O)[C@@H](NC(=O)[C@H](C(C)C)N(C)C)C(C)C,0.26
4,CC[C@@H](C)[C@@H](C(=O)N[C@@H]1C(=O)N(C)[C@@H]([C@@H](C)O)C(=O)N[C@@H](C(C)C)C(=O)N(C)[C@@H](CC(C)C)C(=O)N[C@@H](C(C)C)C(=O)N(C)[C@@H](C(C)C)C(=O)N(C)[C@@H](Cc2c[nH]c3cccc(OC)c23)C(=O)N[C@@H](C(C)C)C(=O)N[C@@H](Cc2ccccc2)C(=O)N[C@@H](C(C)C)C(=O)O[C@@H]1C)N(C)C(=O)[C@@H](NC(=O)[C@H](C(C)C)N(C)C)C(C)C,0.55
5,COc1cccc2[nH]cc(C[C@H]3C(=O)N[C@@H](C(C)C)C(=O)N[C@@H](Cc4ccccc4)C(=O)N[C@@H](C(C)C)C(=O)O[C@H](C)[C@H](NC(=O)[C@H](C(C)C)N(C)C(=O)[C@@H](NC(=O)[C@H](C(C)C)N(C)C)C(C)C)C(=O)N(C)[C@@H]([C@@H](C)O)C(=O)N[C@@H](C(C)C)C(=O)N(C)[C@@H](CC(C)C)C(=O)N[C@@H](C(C)C)C(=O)N(C)[C@@H](C(C)C)C(=O)N3C)c12 (NMe2Val-V[NMeV]T[NMeT]V[NMeL]V[NMeV][NMeTrp(4-OMe)]VFV; ester 3-C),0.13
6,COc1cccc2[nH]cc(C[C@H]3C(=O)N[C@@H](C(C)C)C(=O)N[C@@H]([C@H](O)c4ccccc4)C(=O)N[C@@H](C(C)C)C(=O)O[C@H](C)[C@H](NC(=O)[C@H](C(C)C)N(C)C(=O)[C@@H](NC(=O)[C@H](C(C)C)N(C)C)C(C)C)C(=O)N(C)[C@@H]([C@@H](C)O)C(=O)N[C@@H](C(C)C)C(=O)N(C)[C@@H](CC(C)C)C(=O)N[C@@H](C(C)C)C(=O)N(C)[C@@H](C(C)C)C(=O)N3C)c12 (NMe2Val-V[NMeV]T[NMeT]V[NMeL]V[NMeV][NMeTrp(4-OMe)]V[Phe(3R-OH)]V; ester 3-C),0.15
7,CC[C@@H](C)[C@@H](C(=O)N[C@@H]1C(=O)N(C)[C@@H]([C@@H](C)O)C(=O)N[C@@H](C(C)C)C(=O)N(C)[C@@H](CC(C)C)C(=O)N[C@@H](C(C)C)C(=O)N(C)[C@@H](C(C)C)C(=O)N(C)[C@@H](Cc2c[nH]c3cccc(OC)c23)C(=O)N[C@@H](C(C)C)C(=O)N[C@@H]([C@H](O)c2ccccc2)C(=O)N[C@@H](C(C)C)C(=O)O[C@@H]1C)N(C)C(=O)[C@@H](NC(=O)[C@H](C(C)C)N(C)C)C(C)C (NMe2Val-V[NMeaIle]T[NMeT]V[NMeL]V[NMeV][NMeTrp(4-OMe)]V[Phe(3R-OH)]V; ester 3-C),0.26
